The test system of one experiment is VM precursor cultures. As to the kind of experiment: Total cell number, proliferation (BrdU) and active Caspase 3 in VM precursor cultures. Conditions: for active Caspase 3 immunostaining: VM precursor cultures; for active Caspase 3 immunostaining / proliferation (BrdU incorporation): 15 μM KP, 5 μM I3M; for proliferation (BrdU incorporation): VM precursors, 6 h BrdU pulse; for total number of VM cells (Hoechst 33258 staining): after 3 days in culture, 15 μM KP and 5 μM I3M. Type of experiment: cell-based, rat. The protocol:
(§1) E14.5 VMs obtained from time-mated Sprague-Dawley rats (ethical approval for animal experimentation was granted by Stockholms Norra Djurförsöks Etiska Nämnd) were dissected, mechanically dissociated, and plated at a final density of 1×10^5 cells per cm2 on poly-D-lysine coated plates (Falcon) in serum-free N2 medium, consisting of a 1:1 mixture of F12 and MEM (Invitrogen) with 5 μg/ml insulin, 100 μg/ml transferrin, 100 μM putrescine, 20 nM progesterone, 30 nM selenium, 6 mg/ml glucose and 1 mg/ml BSA (all purchased from Sigma). Cultures were kept three days in vitro, in a 37° C. incubator, at 5% CO2, before fixation. MN9D and SN4741 cells were grown as described in Choi et al., 1991 and Son et al., 1999. MN9D cultures were fixed after four days in vitro. I3M and KP (Alexis Biochemicals, Göteborg, Sweden) were diluted in DMSO and added to the cultures at the time of plating. […] 10 μM BrdU was added to the culture media 6 hours prior to fixation.
(§2) Cells were fixed in ice-cold 4% paraformaldehyde for 20 minutes and washed in PBS. For a detailed protocol of immunocytochemistry, see Castelo-Branco et al., 2003 (7). The following primary and secondary antibodies were used: mouse α-TH (1:1000 dilution—Immunostar), rabbit α-TH (1:250-Pelfreeze), mouse α-β-III-tubulin (1:1000-Promega), rabbit α.Nurr1 (1:1000-Santa Cruz), mouse α-MAP2 (1:200—Sigma), rabbit A-GFAP (1:400-Dako), mouse α.active-caspase III (1:100-Cell Signaling), mouse α-BrdU (1:100-Dako) and rat α.BrdU (1:100-Abcam), biotinylated 1:500, Cyanine-2 or rhodamine-coupled horse-α-mouse IgG 1:200 or goat α-rabbit IgG 1:200, from Vector and Jackson Laboratories). At the end of the staining procedure, the cultures were incubated with Hoechst 33258 reagent for 10 minutes. BrdU immunocytochemistry included an incubation for 30 minutes with 2NHCL. Images were acquired from stained cells in PBS at room temperature with a Zeiss Axioplan 100M microscope (LD Achrostigmat 20×, 0.3 PH1. 0-2 and LD Achroplan 40×, 0.60 Korr PH2. 0-2) and collected with a Hamamatsu camera C4742-95 (with QED imaging software).
(§3) Quantitative immunocytochemical data represent the means±standard errors of counts from ten non-overlapping fields, in three wells per condition from three to five separate experiments. For the RT-PCR experiments, five separate experiments were analysed and for the GSK-3β inhibitors dose response, two sets of experiments were analysed. Statistical analysis was performed in Prism 4 (GraphPad software, San Diego, USA) as described in the figure legends, with […] significance for all tests assumed at the level of p<0.05 (*p<0.05; **0.01<p<0.001; ***p<0.001). Statistical tests were chosen according to the distribution of the sample population.

Another experiment deals with T1, GSK-3β (Mus musculus, UniProt Q9WV60).
T1 construct: treatment of a DA precursor cell line derived from the substantia nigra, SN4741 (21) with KP or I3M led to a downregulation of GSK-3β protein levels; endogenous in cells; host or cells: SN4741 cells
Put plainly: Immunoblotting of GSK-3β protein levels in SN4741 cells. Type of experiment: cell-based. The conditions noted are these: 15 μM KP and 5 μM I3M for 24 hours. On the procedure:
as §1
(§4) Cell were lysed for 15 min in a modified RIPA buffer containing 20 mM Tris (pH 7.5), 140 mM NaCl, 10% glycerol, 1% IGEPAL, 1 mM β-glycerol-phosphate, 1 mM Na3VO4 and complete protease inhibitors (Roche). Plates were scraped and the cell lysate was centrifuged in a microfuge for 5 min. […] Equal amounts of protein were analysed by polyacrylamide gel electrophoresis (10% polyacrylamide). […]

A further experiment has as its system TH. Put plainly: Immunoblotting of TH protein in VM precursors. It counts as cell-based, rat. The conditions noted are these: 15 μM KP or 5 μM I3M for 24 hours. The protocol:
as §1, §4
On the technique in general: In western blotting, separated proteins are transferred to a membrane and probed.

Experiment [1] concerns rat VM E14.5 precursor cultures. Put plainly: TH immunostaining, number of TH+ cells in VM precursor cultures. Type of experiment: cell-based. Conditions: for dose of maximal effect / optimal dose to increase TH+ cell numbers: dose-response in E14.5 VM precursors; for increase in the number of TH positive cells (maximal effect): rat VM E14.5 precursor cultures, three days in vitro, at 3-5 μM I3M, 15 μM KP. The protocol:
as §1, §2, §3

For a further experiment, the system named is VM precursors. Put plainly: Immunostaining for neuronal and glial differentiation (GFAP, TuJ1, MAP2, TH) of VM precursors. It counts as cell-based, rat. Conditions: three days, 15 μM KP and 5 μM I3M. The protocol:
as §1, §2, §3

The subject of the next experiment is β-catenin. Put plainly: Immunoblotting of β-catenin protein in VM precursors. It counts as cell-based, rat. The conditions noted are these: 15 μM KP or 5 μM I3M for 24 hours. On the procedure: as §1, §4
For another experiment, the system named is GSK-3β and CDKs. The conditions noted are these: at 3-5 μM I3M and 15 μM KP; refs (20, 13); cited from earlier work.
The subject of a further experiment is VM Nurr1+ precursors. Put plainly: TH/Nurr1 double immunostaining, conversion of Nurr1+ precursors into TH+ neurons. Type of experiment: cell-based, rat. The conditions noted are these: three days after treatment with 15 μM KP. On the procedure: as §1
Cells were fixed in ice-cold 4% paraformaldehyde for 20 minutes and washed in PBS. […]
Quantitative immunocytochemical data represent the means±standard errors of counts from ten non-overlapping fields, in three wells per condition from three to five separate experiments. For the RT-PCR experiments, five separate experiments were analysed and for the GSK-3β inhibitors dose response, two sets of experiments were analysed. […]

In another experiment the test system is MN9D cells. As to the kind of experiment: MN9D cell number, proliferation and morphological differentiation. It counts as cell-based. The protocol: as §1, §2
The next experiment has as its system c-ret mRNA. As to the kind of experiment: Real time RT-PCR of c-ret mRNA in VM precursor cultures. It counts as cell-based, rat. Conditions: 15 μM KP, three days in vitro. The text has this:
Total RNA was isolated from E14.5 VM precursor cultures (2.5×10^6 cells in 6 cm2 dishes) treated with the GSK-3β inhibitors for three days in vitro. For a description of reverse transcription reaction, real-time RT-PCR and c-ret primer sequences, see Castelo-Branco et al., 2003 (7). Quantum RNA classical 18S internal standard was purchased from Ambion (Austin, USA) and PCR primers from DNA Technology A/S, Aarhus, Denmark. The following PCR programme was used for SYBR Green detection on the ABI PRISM 5700 Detection System (PE AppliedBiosystems, Foster City, Calif., USA): 94° C. for 2 min, 35-40 cycles of 94° C. for 30 s, 59° C. for 30s, 72° C. for 15s and 80° C. for 5s. Statistical analysis of the results was performed by a 2-tailed Wilcoxon signed rank test. Significance for all tests was assumed at the level of p<0.05 (*p<0.05; **0.01<p<0.001; ***p<0.001).
(In qPCR the cycle at which signal appears reflects the starting amount.)

Where [2] appears, read: MN9D cells, 15 μM KP for four days.

T1 sequence (Q9WV60 whole entry): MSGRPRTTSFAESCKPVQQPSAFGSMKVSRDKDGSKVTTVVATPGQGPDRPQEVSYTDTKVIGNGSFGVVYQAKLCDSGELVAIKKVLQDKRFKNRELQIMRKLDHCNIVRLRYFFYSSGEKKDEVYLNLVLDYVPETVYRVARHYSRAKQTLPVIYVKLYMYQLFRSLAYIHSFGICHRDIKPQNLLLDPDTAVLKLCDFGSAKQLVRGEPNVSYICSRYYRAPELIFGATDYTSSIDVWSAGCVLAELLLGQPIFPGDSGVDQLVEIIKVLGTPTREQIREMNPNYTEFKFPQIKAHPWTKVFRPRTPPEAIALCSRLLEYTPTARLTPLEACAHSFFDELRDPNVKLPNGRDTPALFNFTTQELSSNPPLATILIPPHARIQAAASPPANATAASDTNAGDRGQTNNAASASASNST

As to `O=C1Nc2ccccc2/C1=C1/Nc2ccccc2/C1=N\O` [I3M, Indirubin-3-monoxime], in the experiment with VM precursor cultures, the “active Caspase 3 immunostaining” value is given as “reduced”, the “proliferation (BrdU incorporation)” value is given as “significantly decreased” and the “total number of VM cells (Hoechst 33258 staining)” value was “did not change”. Besides, the GSK-3β protein levels result at GSK-3β is “decreases”. Further, the TH protein levels entry in the experiment with TH is given as “increased”. For the same compound, in experiment [1], the “dose of maximal effect / optimal dose to increase TH+ cell numbers” value lay in the range of 3 to 5 µM and the “increase in the number of TH positive cells (maximal effect)” value is “five”. In addition, in the experiment with VM precursors, the “immature neurons (TuJ1 positive cells/Hoechst 33258)” value was “increased”, the “number of mature neurons (MAP2 positive cells/Hoechst 33258)” value is reported as “increase”, the “proportion of TH+ DA neurons (TH+/TuJ1+ cells)” value was “marked increase” and the “total number of astrocytes (GFAP positive cells/Hoechst 33258)” value is given as “increased”. The β-catenin protein levels entry in the experiment with β-catenin was “increased”. Also, the “kinase selectivity at the concentrations used” value in the experiment with GSK-3β and CDKs is “inhibits both GSK-3β and CDKs”.

As for `O=C1Cc2c([nH]c3ccc(Br)cc23)-c2ccccc2N1` [KP, Kenpaullone], in the experiment on VM precursor cultures, the “active Caspase 3 immunostaining” value is “not modified”, the “proliferation (BrdU incorporation)” value is “not affected” and the “total number of VM cells (Hoechst 33258 staining)” value is reported as “did not change”. Moreover, on GSK-3β, the GSK-3β protein levels entry is “decreases”. Besides, in the experiment on TH, the TH protein levels entry is recorded as “increased”. Moreover, the “increase in the number of TH/Nurr1 double positive cells” value with VM Nurr1+ precursors is reported as 2.5 fold. In addition, in experiment [1], the “dose of maximal effect / optimal dose to increase TH+ cell numbers” value is 15 µM and the “increase in the number of TH positive cells (maximal effect)” value was “three”. For the same compound, the “morphological differentiation of MN9D cells” value in the experiment with MN9D cells (15 μM KP for four days) is “induced morphological differentiation”. In addition, the “neurite extension of MN9D cells” value in the experiment on MN9D cells (KP treatment) is recorded as “increase”. In the experiment with MN9D cells (setting [2]), the “proliferation (BrdU incorporation)” value is recorded as “did not alter” and the “total number of cells (Hoechst 33258)” value is “did not alter”. Further, in the experiment with VM precursors, the “immature neurons (TuJ1 positive cells/Hoechst 33258)” value is “increased”, the “number of mature neurons (MAP2 positive cells/Hoechst 33258)” value is “increase”, the “proportion of TH+ DA neurons (TH+/TuJ1+ cells)” value is given as “marked increase” and the “total number of astrocytes (GFAP positive cells/Hoechst 33258)” value is reported as “increased”. Also, in the experiment with c-ret mRNA, the “c-ret mRNA levels” value was “upregulated”. The β-catenin protein levels entry in the experiment on β-catenin was “increased”. Further, the “kinase selectivity at the concentrations used” value in the experiment with GSK-3β and CDKs was “GSK-3β selective inhibitor”.

(Values after US20090226536A1, “METHODS AND MATERIALS RELATING TO ENHANCED PRODUCTION OF DOPAMINE NEURONS” (priority 2004, published 2009).)
